For assay [1], the target named is T1, SHP2 (Homo sapiens, UniProt Q06124).
T1 construct: gene PTPN11
T1 sequence (Q06124 1-526): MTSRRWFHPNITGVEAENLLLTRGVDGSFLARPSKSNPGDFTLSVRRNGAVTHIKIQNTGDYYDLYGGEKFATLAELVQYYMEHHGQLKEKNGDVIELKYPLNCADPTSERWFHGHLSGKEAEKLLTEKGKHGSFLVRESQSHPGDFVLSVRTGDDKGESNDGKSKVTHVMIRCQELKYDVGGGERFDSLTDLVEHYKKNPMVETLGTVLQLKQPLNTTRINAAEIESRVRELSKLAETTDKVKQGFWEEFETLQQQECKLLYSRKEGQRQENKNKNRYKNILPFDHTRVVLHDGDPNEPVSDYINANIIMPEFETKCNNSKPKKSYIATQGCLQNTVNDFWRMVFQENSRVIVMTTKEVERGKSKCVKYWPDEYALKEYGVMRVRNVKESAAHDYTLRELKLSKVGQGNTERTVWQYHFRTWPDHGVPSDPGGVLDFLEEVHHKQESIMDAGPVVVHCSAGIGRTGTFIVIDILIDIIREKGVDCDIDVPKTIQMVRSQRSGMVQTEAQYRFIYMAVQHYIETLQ

The target of assay [2] is T1, SHP2. The assay can be described thus: DiFMUP fluorogenic phosphatase assay at […]. The assay is classed as biochemical.

For `Cc1cc(=O)oc2c(F)c(OP(=O)(O)O)c(F)cc12` [DiFMUP], the Km on SHP2 [1] turned out to be 70 µM.

`CC1(C)CC[C@]2(C(=O)O)CC[C@]3(C)C(=CC[C@@H]4[C@@]5(C)CC[C@H](O)C(C)(C)[C@@H]5CC[C@]43C)[C@@H]2C1` [oleanolic acid]: the “DiFMUP fluorogenic phosphatase assay at 20 μM” value at SHP2 [2] was “Echinocystic and oleanolic acids selectively inhibited SHP1 and SHP2 over the other PTPs tested”.

One may read the Km as the concentration of substrate that gives half-maximal velocity.

Source of the values: paper PMC7915588, “Polyphyllin D Shows Anticancer Effect through a Selective Inhibition of Src Homology Region 2-Containing Protein Tyrosine Phosphatase-2 (SHP2)” (Molecules, 2021).
